Reference: patent publication US20050069541A1, “Composition for and treatment of demyelinating diseases and paralysis by administration of remyelinating agents” (priority 2003, published 2005)
Entries after “also recorded” stand apart in the source; their conditions may differ.

What was measured:
[1] = Receptor-saturating levels of compound maintained in dosed EAE guinea pigs; format: in vivo; details: 30 mg/kg twice a day, subcutaneously, guinea pig
Protocol: Treatment Regimes. N-[N-(3-pyridinesulfonyl)-L-3,3-dimethyl-4-thiaprolyl]-O-[1-methylpiperazin-4-ylcarbonyl]-L-tyrosine isopropyl ester is a small molecule that binds with high affinity to human and guinea pig 4 integrin (IC50 for inhibition of cell adhesion to VCAM=1 nm). Disease in animals was considered chronic by day 40 post immunization, and thus the treatment period began at this time, and lasted for 10, 20, 30 or 40 days. Animals received either 0.5 mL saline (vehicle for N-[N-(3-pyridinesulfonyl)-L-3,3-dimethyl-4-thiaprolyl]-O-[1-methylpiperazin-4-ylcarbonyl]-L-tyrosine isopropyl ester; n=20) or 30 mg/kg N-[N-(3-pyridinesulfonyl)-L-3,3-dimethyl-4-thiaprolyl]-O-[1-methylpiperazin-4-ylcarbonyl]-L-tyrosine isopropyl ester (n=25) twice a day. With the dosing regimen, receptor saturation levels of N-[N-(3-pyridinesulfonyl)-L-3,3-dimethyl-4-thiaprolyl]-O-[1-methylpiperazin-4-ylcarbonyl]-L-tyrosine isopropyl ester (>10 nm) were maintained at all times. One subgroup of animals received N-[N-(3-pyridinesulfonyl)-L-3,3-dimethyl-4-thiaprolyl]-O-[1-methylpiperazin-4-ylcarbonyl]-L-tyrosine isopropyl ester for 30 days, and then treatment was withdrawn and the animals were maintained for an additional 10 days (n=5). All treatments were administered subcutaneously.
Treatment Regimes. Animals that met both treatment criteria were treated for intervals of 10, 20, 30 or 40 days. […]

IL-2, IL-10, MCP-1 RNA = test: Chronic EAE: quantitative RT-PCR of spinal cord; format: in vivo, guinea pig
Protocol: Quantitative Reverse Transcription-PCR: IL-2, IL-10, MCP-1. RNA was isolated from 30 mg of frozen guinea pig spinal cord using the S.N.A.P.™ (simple nucleic acid preparation) total RNA Isolation Kit (Invitrogen) according to manufacturer's instructions, modified to include a second DNAse treatment step followed by an additional purification over the S.N.A.P. column.
Primer/probe sequences and concentrations for IL-2, IL-10, and MCP-1 are given in Table 7, as well as the standard RNA used for each gene. RT-PCR was carried out in triplicate using the ABI PRISM® 7700 Sequence Detection System. 50 μl reactions contained 10 to 800 ng of total RNA and primers and probes at the concentrations indicated above in reaction buffer consisting of 6.67% glycerol (Amresco); 5.5 mM MgCl; 300 μM DATP, dCTP, dGTP, and dUTP; 100 nM probe; 1.25 unit of AmpliTaq Gold® DNA Polymerase (Applied Biosystems); 1× TaqMan® Buffer A (TaqMan® PCR Core reagents kit, Applied Biosystems), 20 units of RNase Inhibitor (Roche); 1.25 unit of murine leukemia virus (MuLV) Reverse Transcriptase (Applied Biosystems). Reverse-transcription of RNA was carried out at 48° C. for 30 min., followed by a 10 min. denaturing step at 95° C. PCR was carried out by 40 thermo-cycles consisting of 95° C. for 15 seconds followed by 60° C. for 1 minute. Each plate included a standard curve using the standard RNA listed in Table 7 and two additional control samples: 1) a positive control RNA sample used on all plates, 2) a non-template control (NTC).
The correlation coefficients of the standard curves were greater than 0.990 for all data shown. The coefficients of variation for sample triplicates were less than 0.2. Since the RNA used for the standard curve is a heterogeneous mix of RNA containing a constant but unknown amount of the target message, the numbers calculated are relative.

[2] = tested on: guinea pig model of CP-EAE; details: with increasing duration of treatment; Piraino et al., 2002; cited from earlier work
[3] = tested on: α4 integrin on circulating lymphocytes and monocytes; test: Chronic EAE: FACS analysis of α4 integrin on circulating cells, day 80; format: in vivo, guinea pig
Protocol: FACS Analysis. On day 80 post-immunization, heparinized blood samples were collected from non-EAE animals, saline-treated animals, N-[N-(3-pyridinesulfonyl)-L-3,3-dimethyl-4-thiaprolyl]-O-[1-methylpiperazin-4-ylcarbonyl]-L-tyrosine isopropyl ester-treated animals and animals 10 days following withdrawal of N-[N-(3-pyridinesulfonyl)-L-3,3-dimethyl-4-thiaprolyl]-O-[1-methylpiperazin-4-ylcarbonyl]-L-tyrosine isopropyl ester. All samples were maintained at 4° C. for all procedures. 150 μl samples were exposed to primary antibody for 30 minutes, washed twice, and then incubated with PE-conjugated goat anti-mouse IgG Fc in the presence of 5% guinea pig serum (Beckman Coulter #PN EM055 1). Red blood cells were lysed with Becton-Dickinson lysing solution and the samples were examined on a FACScan flow cytometer (Becton Dickinson, Mountain View, Calif.) gating on different cell populations by light scatter.

CC(C)OC(=O)[C@H](Cc1ccc(OC(=O)N2CCN(C)CC2)cc1)NC(=O)[C@H]1N(S(=O)(=O)c2cccnc2)CSC1(C)C [N-[N-(3-pyridinesulfonyl)-L-3,3-dimethyl-4-thiaprolyl]-O-[1-methylpiperazin-4-ylcarbonyl]-L-tyrosine isopropyl ester]
receptor saturation levels maintained at all times [1]: > 10 nm
cytokine RNA after withdrawal of compound (IL-2, IL-10, MCP-1 RNA; 10 days after withdrawal): returned to levels comparable to saline-treated animals
IL-2 RNA in spinal cord during treatment (IL-2, IL-10, MCP-1 RNA; lumbar spinal cord): almost no detectable IL-2 RNA
inflammatory cytokine RNA (IL-2, IL-10, MCP-1) during treatment (IL-2, IL-10, MCP-1 RNA; lumbar spinal cord, versus saline): significant reduction; also recorded: marked decrease
immune cell infiltrates and associated inflammatory mediators [2]: progressively reduce immune cell infiltrates
percentage of α4 integrin bright lymphocytes in the circulation after removal of compound ([3]; 10 days after withdrawal): returned to saline-treated levels
increase of α4 integrin expression on circulating monocytes in EAE ([3]; day 80): not affected
α4 integrin bright lymphocytes in the circulation versus saline ([3]; day 80 post immunization): large increase
